Structures are written as SMILES.

Common to all, as to settings: 72 h
One test has as its system HCC1599. In outline: (§1)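 Breast cancer cell lines in 20 µl suspension were added to 384-well plates already holding compound at 5 concentrations, spaced in 10-fold steps across a compound-specific 10,000-fold range, and incubated for 72 h. CellTox Green fluorescence (485/520 nm) was read first to measure cell death, followed by CellTiter-Glo luminescence for viability after 10 min at room temperature. Each plate was normalised to 0.1 % DMSO and a positive kill control. EC50 values came from dose-response curve fits and were censored at the top concentration.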

The next test deals with MDA-MB-453. In a few lines: as §1
The test system of a further test is BT-549. In a few lines: as §1
Another test has as its system HCC1143. In outline: as §1
The test system of a further test is HDQ-P1. In outline: as §1

As to `COc1cc(OC2CCN(C)CC2)ccc1Nc1ncc2c(n1)n(C1CCCC1)c(=O)n2C` [AZ 3146], in the test on HCC1599, the “EC50, CellTox Green” value is above 10000 nM.
In the case of `O=C(/C=C/c1cccc(S(=O)(=O)Nc2ccccc2)c1)NO` [Belinostat], the “EC50, CellTox Green” value with MDA-MB-453 is above 10000 nM.
On to `Nc1cc(C(F)(F)F)c(-c2cc(N3CCOCC3)nc(N3CCOCC3)n2)cn1` [Buparlisib], for which, in the test on BT-549, the “EC50, CellTox Green” value worked out at 7700 nM.
In the case of `CCOC(=O)CCNc1cc(N2CCc3ccccc3CC2)nc(-c2ccccn2)n1` [GSK-J4], the “EC50, CellTox Green” value is 5440 nM with HCC1599; 17800 nM with BT-549; 22600 nM with MDA-MB-453; 321 nM with HCC1143; 9770 nM in the test on HDQ-P1.
With `Cc1ccc(NC(=O)c2ccc(CN3CCN(C)CC3)cc2)cc1Nc1nc(-c2cccnc2)cs1` [Masitinib], the “EC50, CellTox Green” value in the test on HCC1599 turned out to be 8820 nM.
Regarding `COC(=O)c1ccc2c(c1)NC(=O)/C2=C(\Nc1ccc(N(C)C(=O)CN2CCN(C)CC2)cc1)c1ccccc1` [Nintedanib], the “EC50, CellTox Green” value in the test with BT-549 was 6880 nM.
Regarding `Cc1[nH]c2ccccc2c1CCNCc1ccc(/C=C/C(=O)NO)cc1` [Panobinostat], the “EC50, CellTox Green” value came to 112 nM in the test with HCC1599, 43 nM in the test on MDA-MB-453, 71.7 nM with HCC1143 and 193 nM in the test on HDQ-P1.
With `CO[C@H]1C[C@@H]2CC[C@@H](C)[C@@](O)(O2)C(=O)C(=O)N2CCCC[C@H]2C(=O)O[C@H]([C@H](C)C[C@@H]2CC[C@@H](OP(C)(C)=O)[C@H](OC)C2)CC(=O)[C@H](C)/C=C(\C)[C@@H](O)[C@@H](OC)C(=O)[C@H](C)C[C@H](C)/C=C/C=C/C=C/1C` [Ridaforolimus], the “EC50, CellTox Green” value in the test on HDQ-P1 amounted to 0.35 nM.
As to `CC(C)C[C@@H](C(=O)N[C@H](C(=O)OC1CCCC1)c1ccccc1)[C@H](O)C(=O)NO` [Tosedostat], the “EC50, CellTox Green” value in the test with BT-549 is 1390 nM; in the test with HCC1143 it was 7200 nM; in the test with HDQ-P1, 851 nM.
Take `COc1cc2c(NC3CCN(C(C)C)CC3)nc(N3CCC(F)(F)CC3)nc2cc1OCCCN1CCCC1` [UNC0642]: the “EC50, CellTox Green” value in the test on MDA-MB-453 was 7170 nM.
Take `COCC[n+]1c2c(n(Cc3cnccn3)c1C)C(=O)c1ccccc1C2=O` [YM155]: the “EC50, CellTox Green” value with HCC1599 was found to be 58.5 nM; in the test on BT-549, 272 nM; with MDA-MB-453, 347 nM; with HCC1143 it was 1.59 nM; with HDQ-P1 it was 33 nM.

The record behind these values is the supplement of paper PMC4862054.
